In PMC6337391 (Molecules, 2019):
Where two headings read alike, the source gives them in different places.

Key:
[1] = target: acetyl-cholinesterase (AChE) (Electrophorus electricus, UniProt O42275); conditions: cited from earlier work
[2] = set-up: method as in PMID 25798685; conditions: cited from earlier work
[3] = set-up: method as in PMID 25798685; conditions: RP-TLC, methanol/water 70/30, SD < 10%; cited from earlier work
soybean lipoxygenase [4] = target: T1, soybean lipoxygenase (Glycine max, UniProt P08170); set-up: method as in PMID 25798685; conditions: cited from earlier work
T1 sequence (P08170 1-839): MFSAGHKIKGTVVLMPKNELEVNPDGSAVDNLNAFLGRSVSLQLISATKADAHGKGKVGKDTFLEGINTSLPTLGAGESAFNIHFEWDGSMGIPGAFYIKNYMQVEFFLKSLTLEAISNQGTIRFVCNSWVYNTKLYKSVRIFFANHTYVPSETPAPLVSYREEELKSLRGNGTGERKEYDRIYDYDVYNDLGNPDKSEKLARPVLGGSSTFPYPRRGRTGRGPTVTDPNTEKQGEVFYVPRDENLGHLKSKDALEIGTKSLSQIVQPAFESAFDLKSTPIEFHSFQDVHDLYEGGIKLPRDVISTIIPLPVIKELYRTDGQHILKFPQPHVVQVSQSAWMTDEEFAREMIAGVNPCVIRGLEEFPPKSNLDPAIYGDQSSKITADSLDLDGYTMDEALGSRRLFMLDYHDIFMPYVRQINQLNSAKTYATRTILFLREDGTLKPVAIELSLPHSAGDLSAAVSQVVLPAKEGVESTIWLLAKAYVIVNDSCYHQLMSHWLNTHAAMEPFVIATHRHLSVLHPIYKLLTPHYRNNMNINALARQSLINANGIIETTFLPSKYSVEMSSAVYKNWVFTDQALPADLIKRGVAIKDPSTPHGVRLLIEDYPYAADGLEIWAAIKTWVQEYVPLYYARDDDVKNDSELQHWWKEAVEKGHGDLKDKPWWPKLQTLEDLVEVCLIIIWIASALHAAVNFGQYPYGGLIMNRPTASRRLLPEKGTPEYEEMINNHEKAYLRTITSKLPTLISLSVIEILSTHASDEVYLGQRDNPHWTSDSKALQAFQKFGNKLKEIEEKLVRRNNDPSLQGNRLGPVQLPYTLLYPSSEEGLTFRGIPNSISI

[5] = system: L929 mouse fibroblasts cells; set-up: method as in PMID 25798685; conditions: 24-h incubation, cited from earlier work
[6] = set-up: method as in PMID 25798685; conditions: cited from earlier work; remark: listed apart in the source
[7] = set-up: method as in PMID 25798685; conditions: DPPH, cited from earlier work
Aβ40 = target: T2, Aβ40 (Homo sapiens, UniProt P05067); assay: Circular dichroism study of Aβ40 aggregation; conditions: 50 µM compound, 50 µM Aβ40 (1:1), PB pH 7.33, 33 °C, 40 days
T2 construct: Amyloid peptide Aβ40 was purchased from AnaSpec Co; purchased AnaSpec Co. (Fremont, CA, USA)
Excerpt: The pathogenesis of Alzheimer’s disease (AD) is widely associated with the aggregation of β-amyloid peptide (Aβ) either to soluble oligomers or to higher-order polymeric insoluble fibrils. As a result, one of the main therapeutic strategies against AD targets the aggregation process of Aβ, and a great number of small molecules are being investigated for their potential to intervene in the assembly of Aβ and inhibit its neurotoxicity in vitro and in vivo [64]. Circular dichroism (CD) spectroscopy is commonly used to probe the secondary structure of polypeptides and to monitor conformational changes and interactions of polypeptides with small molecules. The typical aggregation process of Aβ produces characteristic CD spectra over time that reflect the conformational changes that occur as the random coil monomers are converted into β-sheet oligomers, and then gradually to larger β-sheet formations that finally produce amyloid fibrils. CD is, therefore, a valuable tool to monitor the aggregation process of Aβ and to study the effect of potential aggregation inhibitors. To further investigate the pleiotropic effects of chalcones against AD, selected compounds from our library, were subjected to CD studies in order to evaluate their potential to interfere with the aggregation process of Aβ40. […] The aggregation spectra of plain Aβ40 show at day 0 the typical random coil peak (negative maximum at 198 nm) the intensity of which gradually decreases as the peptide forms β–sheet structures (negative maximum at 222 nm, day 15) that further aggregate to higher order polymeric fibrils. The precipitation of the insoluble fibrils from solution eventually results in the loss of CD signal (days 30 and 40). […] In view of the above results, chalcone derivatives bearing a three-carbon chain linker, specifically c2, c3, and c4, were subsequently studied in order to assess the effect of further derivatization and the presence of the chalcone moiety in the structure. […] Overall, our CD study identified three new structures capable of interfering with the aggregation process of Aβ, out of which compounds c2 and c4 display additional protective actions against AD and add to the pleiotropic profile of the chalcone derivatives.
Preparation of Aβ stocks and solutions. Amyloid peptide Aβ40 was purchased from AnaSpec Co. (Fremont, CA, USA) (>95% pure). Aβ40 was gently dissolved without vortexing in Type 1 (Milli-Q) water to a final concentration of 100 μM. Solutions of Aβ in phosphate buffer (PB, 10 mM, pH 7.33) were prepared by adding equal volumes of PB to aliquots of the aqueous solution stock to achieve final concentration of 50 µM. The proper amount of the compounds c2, c3, c4, di, dii, and dvi were added to the Aβ solutions to achieve concentration of 50 μM. The secondary structural changes of Aβ were monitored for 40 days by CD. During this period, the amyloid peptide solutions were kept at an incubator at 33 °C under quiescent conditions.
Circular dichroism measurements. CD spectra were recorded on a JASCO J-715 spectropolarimeter (Jasco Co., Tokyo, Japan), at 33 °C in the range of 190–260 nm with a 1 mm path length quartz cuvette. Each spectrum was the average of three scans at a speed of 100 nm·min^−1 and a resolution of 0.5 nm. Three independent experiments were run for each condition and in each case solutions of plain Aβ were run as control (Figure 8). The analysis of the CD data was performed using the OriginPro 9 program.

[8] = In vitro lipid peroxidation of liposomes
[9] = Lipophilicity as RM values by RP-TLC; assay type: physicochemical; set-up: key: RM = log[(1/Rf) − 1]; conditions: methanol/water 70/30, SD < 10%
Procedure, shortened: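 Reversed-phase TLC on silica gel plates impregnated with 5% (v/v) liquid paraffin, methanol/water 70/30 (v/v) mobile phase, saturated tanks at 24 °C, UV detection. RM = log[(1/Rf) − 1] from five Rf measurements.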

soybean lipoxygenase [10] = target: T1, soybean lipoxygenase; assay: biochemical; assay type: biochemical; conditions: soybean LOX; for IC50: read-out: LOX IC50
Procedure, shortened: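 Soybean LOX (enzyme solution 1/9 × 10^−4 w/v in saline) incubated at room temperature with sodium linoleate ([…]) in tris buffer pH 9. Compounds added from DMSO stocks. IC50 derived from several concentrations.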

[11] = Inhibition of linoleic acid lipid peroxidation (AAPH)
Procedure, shortened: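 Sodium linoleate oxidation was initiated by AAPH in 0.05 M phosphate buffer, pH 7.4, at 37 °C, with test compound present and DMSO as blank. Conjugated diene hydroperoxide formation was followed as the absorbance increase at 234 nm.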

[12] = ABTS•+ decolorization assay
Procedure, shortened: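 Compounds (10 mM DMSO stocks, diluted) added to ABTS•+ radical generated by potassium persulfate oxidation of ABTS. Decolorization followed as absorbance at room temperature, with Trolox as standard.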

[13] = Reducing activity with the stable radical DPPH
Procedure, shortened: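 DPPH (final 0.05 mM) in absolute ethanol mixed with an equal volume of compound at 0.05 or 0.1 mM, ethanol as control. Absorbance at 517 nm read at room temperature after 20 and 60 min, expressed as reducing activity RA%.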

[14] = system: L929 mouse fibroblasts cells; assay: Cytotoxicity, propidium iodide fluorescence method; assay type: cell-based; conditions: 24-h incubation
Procedure, shortened: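 L929 cells in EMEM with 10% horse serum were allowed to attach for 24 h, then exposed to 1, 10, 20, 50 and 100 μM compound for 24 h at 37 °C. Cells were detached, stained with propidium iodide, and cell death was measured by flow cytometry.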

Chain of acetyl-cholinesterase (AChE) (O42275 24-633): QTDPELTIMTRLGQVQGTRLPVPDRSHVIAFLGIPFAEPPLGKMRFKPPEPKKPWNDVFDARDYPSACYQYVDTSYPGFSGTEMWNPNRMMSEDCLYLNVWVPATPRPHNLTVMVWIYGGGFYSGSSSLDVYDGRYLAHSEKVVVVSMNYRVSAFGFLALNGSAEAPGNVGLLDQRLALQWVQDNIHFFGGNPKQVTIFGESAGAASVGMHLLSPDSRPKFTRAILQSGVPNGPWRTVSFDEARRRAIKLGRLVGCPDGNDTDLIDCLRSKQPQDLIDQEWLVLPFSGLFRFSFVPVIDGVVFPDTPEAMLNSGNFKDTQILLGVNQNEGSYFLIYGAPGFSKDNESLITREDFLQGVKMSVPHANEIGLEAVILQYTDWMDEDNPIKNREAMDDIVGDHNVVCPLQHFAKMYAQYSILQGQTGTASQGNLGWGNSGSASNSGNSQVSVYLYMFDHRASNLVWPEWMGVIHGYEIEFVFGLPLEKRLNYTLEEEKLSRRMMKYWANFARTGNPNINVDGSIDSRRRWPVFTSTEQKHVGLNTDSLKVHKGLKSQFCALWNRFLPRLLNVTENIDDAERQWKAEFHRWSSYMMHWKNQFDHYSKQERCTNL
T2 sequence (P05067 672-711 limits assumed): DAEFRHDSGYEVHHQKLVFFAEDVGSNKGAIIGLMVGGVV

SMILES | % AChE Inhb. @ 100 μM [1] | ABTS•+ Inhb. % @ 100 μM [2] | RM [3] | % LOX Inhb. @ 100 μM (soybean lipoxygenase [4]) | 1 μM Average (% pi) ± σ [5] | 10 μM Average (% pi) ± σ [5] | 20 μM Average (% pi) ± σ [5] | 50 μM Average (% pi) ± σ [5] | 100 μM Average (% pi) ± σ [5] | AAPH% @ 100 μM (anti-lipid peroxidation) [6] | RA% 100 μM 20 min [7] | RA% 100 μM 60 min [7] | effect on the aggregation process of Aβ40 (CD spectra) (Aβ40) | % Inhb. of Liposomes LP @ 100 μM [8] | RM [9] | % LOX Inhb. @ 100 μM (soybean lipoxygenase [10]) | AAPH% @ 100 μM (anti-lipid peroxidation) [11] | ABTS•+ Inhb. % @ 100 μM [12] | RA% 100 μM 20 min [13] | RA% 100 μM 60 min [13] | also measured
O=C(/C=C/c1ccc(OCc2ccc(Br)cc2)cc1)c1ccc(OCCCOc2ccc(C(=O)/C=C/c3ccc(OCc4ccc(Br)cc4)cc3)cc2)cc1 [c1, (2E,2′E)-1,1′-((propane-1,3-diylbis(oxy))bis(4,1-phenylene))bis(3-(4-((4-bromobenzyl)oxy)phenyl)prop-2-en-1-one)] | 23% | no | −0.68 | 41% | 38.5 ± 6.9% | 49.5 ± 7.8% | 53.5 ± 0.71% | 74 ± 5.6% | 74 ± 5.6% | 42% | 36% | 55% | – | – | – | – | – | – | – | – | –
O=C(/C=C/c1cccc(Oc2ccccc2)c1)c1ccc(OCCCOc2ccc(C(=O)/C=C/c3cccc(Oc4ccccc4)c3)cc2)cc1 [c2, (2E,2′E)-1,1′-((propane-1,3-diylbis(oxy))bis(4,1-phenylene))bis(3-(3-phenoxyphenyl)prop-2-en-1-one)] | 71% | no | −0.89 | 100% | 17 ± 1.4% | 29 ± 4.2% | 43 ± 2.8% | 55 ± 4.2% | 55 ± 4.2% | 22% | No | 8% | stabilized β-sheet assemblies that did not evolve further into insoluble fibrillar aggregates | 2% | – | – | – | – | – | – | IC50 (soybean lipoxygenase [4]; soybean LOX): 55 µM
Cc1ccc(/C=C/C(=O)c2ccc(OCCCOc3ccc(C(=O)/C=C/c4ccc(C)o4)cc3)cc2)o1 [c12, (2E,2′E)-1,1′-((propane-1,3-diylbis(oxy))bis(4,1-phenylene))bis(3-(5-methylfuran-2-yl)prop-2-en-1-one)] | – | – | – | – | – | – | – | – | – | – | – | – | – | 74% | −0.96 | 52% | 68% | 17% | No | no | IC50 (soybean lipoxygenase [10]): 96 µM; 1 μM Average (% pi) ± σ ([14]; 1 μM): 13.22 ± 0.64%; 10 μM Average (% pi) ± σ ([14]; 10 μM): 31.31 ± 4.84%; 20 μM Average (% pi) ± σ ([14]; 20 μM): 53.79 ± 16.95%; 50 μM Average (% pi) ± σ ([14]; 50 μM): 84.03 ± 2.25%; 100 μM Average (% pi) ± σ ([14]; 100 μM): 84.03 ± 2.25%
CC(=O)c1ccc(OCCCOc2ccc(C(C)=O)cc2)cc1 [dii, 1,1′-((propane-1,3-diylbis-(oxy))bis(4,1-phenylene))diethanone] | 20% | No | −0.23 | no | 9 ± 4.5% | 8.5 ± 4.24% | 13 ± 4.5% | 42 ± 3.5% | 42 ± 3.5% | 20% | No | no | modified the aggregation course of Aβ40 by stabilizing a β-sheet structure that did not seem to evolve further | – | – | – | – | – | – | – | –
CN(C)c1ccc(/C=C/C=C/C(=O)c2ccc(OCCOc3ccc(C(=O)/C=C/C=C/c4ccc(N(C)C)cc4)cc3)cc2)cc1 [ei] | – | – | – | – | – | – | – | – | – | – | – | – | – | 4% | 0.56 | 77% | 71% | 98% | No | no | IC50 (soybean lipoxygenase [10]): 62.5 µM
CN(C)c1ccc(/C=C/C=C/C(=O)c2ccc(OCCCCCOc3ccc(C(=O)/C=C/C=C/c4ccc(N(C)C)cc4)cc3)cc2)cc1 [eiv, (2E,2′E,4E,4′E)-1,1′-((pentane-1,5-diylbis(oxy))bis(4,1-phenylene))bis(5-(4-(dimethylamino)phenyl)penta-2,4-dien-1-one)] | – | – | – | – | – | – | – | – | – | – | – | – | – | 77% | 0.13 | 23% | 72% | 73% | No | no | –
